# Patent US12202804B2, “In vitro or ex vivo methods for screening a quinoline derivative” (ABIVAX, priority 2014, dated 2025)
# Assays:
# miR-124 = experiment: Modulation of miR-124 expression in PBMCs (qPCR, relative quantification); format: cell-based, human; settings: for fold induction at 5 µM / fold induction at 10 µM: Homo sapiens, PBMC, 144 h, read-out: Fold-change compared to DMSO treated cells (Relative quantification) Mean; for fold induction at 5 µM / Fold-change compared to DMSO treated cells (Relative quantification) Mean / fold induction at 10 µM: miR-124 expression, PBMCs of healthy donors; for fold induction at 5 µM: quinoline derivatives 5 μM, extraction day 6, mean over 1 to 7 donors; for effect on the overexpression of miR-124 in PBMCs: known antiretrovirals, PBMCs from four donors; for Fold-change compared to DMSO treated cells (Relative quantification) Mean / fold induction at 10 µM: antiretroviral drugs 10 μM, extraction day 6, 4 donors
# Description: Briefly, 60-70 mL of buffy-coat are poured in a flask of 175 cm^2, and the volume is adjusted to 300 mL using PBS in order to obtain a dilution of about 5-fold of the buffy coat. […] The lymphocyte ring is recovered from the Falcon™ tube with a transfer pipette (Pastette®) and then washed with PBS using centrifugation for 10 minutes at 290 rcf and at ambient temperature until the supernatant becomes clear.
# Cells are incubated for 48 hours at 37° C. under 5% CO2.
# Six-well plates are used for the screening. Within each well comprising 3.10^6 cell/4 ml RPMI supplemented with 10% fetal calf serum and 40 U/mL IL-2 (Peprotech Ref 200-02) are added screened molecules. 100% DMSO (4 μL) is added to the well and tested as a negative control.
# Each tested condition is set up as described here below and the final corresponding volume is adjusted accordingly in the well: • 1) Quinoline derivatives in 100% DMSO—(5 μM and final volume 4 μL) • 2) Antiretroviral drugs: Maraviroc, Efavirenz, Darunavir, AZT (10 μM for all—final volume 4 μL).
# The wells are incubated for three days at 37° C. under 5% CO2 Medium is changed (Day 3) according to standard protocols. Briefly, plates are centrifugated at 290 rcf for 5 minutes and 3 mL of supernatant is removed. 3 mL of RPMI supplemented with 10% fetal calf serum and 40 U/mL IL-2 is then added with 3 μL of a stock solution of screened molecule at 5 mM in 100% DMSO or 3 μL of 100% DMSO as a negative control.
# Cells are recovered within Falcon™ tubes of 15 mL, centrifugated at 290 rcf for 5 minutes, and then washed in 10 mL PBS and further centrifugated at 290 rcf for 5 minutes. Cells are then resuspended in 1 mL PBS and counted.
# 6×10^6 cells are recovered and centrifugated at 290 rcf for 5 minutes.
# The miRNA extraction is achieved using the protocol from Macherey Nagel Nucleospin® miRNA extraction kit using an elution volume for RNAs of 50 μL and miRNAs of 30 μL, and further stored at −20° C.
# The reverse transcription step is followed for 12 μL of miRNA using the miScript RT II reverse transcription (RT) kit from QIAGEN© using the miScript HiSpec buffer, and further stored at −20° C.
# The quantitative PCR step is achieved using the QIAGEN© miScript SYBR® Green PCR kit and miScript Primer Assays according to the manufacturer's protocol.
# The reaction is repeated in triplicates in a 384-well plate according to the manufacturer's protocol on a LightCycler® […] Roche Real-Time PCR system. Cycling conditions are also set up according to the manufacturer's protocol: […]
# [1] = system: (DSS-) induced colitis model; experiment: Dextran Sulphate Sodium (DSS-) induced colitis mouse model; format: in vivo, C57BL/6 mice
# Description: A commonly used mouse model of inflammatory bowel disease is the Dextran Sulphate Sodium (DSS-) induced colitis model. Typical histological changes of acute DSS-colitis are mucin depletion, epithelial degeneration and the eventual destruction of the mucosal barrier which leads to inflammation and colitis.
# Three groups of 6-week-old C57BL/6 mice (8 mice each) received DSS administration in the drinking water (2.5%) for 9 days (FIGS. 1-2). Weight loss and water consumption was measured every day. The latter was determined by measuring the volume loss of the drinking water in the respective devices. The mice were treated by gavage with 200 ul of 0.5 MC alone (DSS+MC group) or together with 40 mg/kg of compound 24 (DSS+MC+24 group). At the point when control mice have loosed up to 20% of their weight (DSS), the treatment with DSS is stopped and replaced with drinking water. The other treatments were continued for 21 days.
# Three groups of 16-week-old C57BL/6 mice (7 mice each) received 2.5% DSS in drinking water (FIG. 3). The mice were treated by gavage with 200 ul of 0.5 MC alone (DSS+MC group) or together with 40 mg/kg of compound 24 (DSS+MC+24 group). The mice were treated with DSS for 6 days and at the point when control mice have loosed up to 15% of their weight (DSS), all the mice were euthanized and colon were taken for further analyses.
# Colons were measured using a ruler and for histological analysis the entire colon was prepared according to the Swiss roll procedure (Whittem el al.; “Murine Colitis Modeling using Dextran Sulfate Sodium (DSS)”, J Vis Exp 2010 (35) 1652) fixed with formaldehyde and embedded in paraffin. 4 μm sections were de-paraffinized and stained with hematoxylin and eosin and analyzed for lesion size and other alterations (FIGS. 4-6). We compared untreated and treated mice during the DSS-cycle with quinoline derivatives suspended in methylcellulose or methylcellulose (MC) only. Statistical analysis was performed using Mann-Whitney test, asterisk indicates a significant difference ([…]), two asterisks indicate a very significant difference ([…])
# [2] = system: Collagen induced arthritis model; experiment: Collagen induced arthritis mouse model; format: in vivo, DBA/1 mice
# Description: Groups of 9 to -10-week-old DBA/1 mice were immunized intradermally with bovine collagen type II emulsified in a 1:1 proportion with complete Freund's adjuvant. Mice were challenged 21 days after the first immunization and the phenotypic appearance of arthritis was evaluated by monitoring every second day the thickness of each hind paw ankle joint thickness was measured using a dial caliper (0- to 10-mm) test gauge using a thickness gage. Mice were treated daily for two weeks with quinoline derivatives candidates suspended in methylcellulose or methylcellulose (MC) only and the development of the disease was then monitored. Statistical analysis was performed using Mann-Whitney test, asterisk indicates a significant difference ([…]).
Compound,fold induction at 5 µM (miR-124),also measured
Cc1ccnc(Nc2ccc3cccc(Cl)c3n2)c1N [Compound 4],24.4,–
"Cc1cn([C@H]2C[C@H](N=[N+]=[N-])[C@@H](CO)O2)c(=O)[nH]c1=O [AZT, reference compound]",–,"effect on the overexpression of miR-124 in PBMCs (miR-124): none of the known antiretroviral (Maraviroc, Effavirenz, Darunavir or AZT) has any significant effect; Fold-change compared to DMSO treated cells (Relative quantification) Mean (miR-124): 0.90"
Cc1ccnc(Nc2ccc3cccc(Cl)c3n2)c1 [Compound 1],32,–
"CN(c1cc(C(F)(F)F)ccn1)c1ccc2cccc(Cl)c2n1 [Compound 10, 8-chloro-N-methyl-N-(4-(trifluoromethyl)pyridin-2-yl)quinolin-2-amine]",21.1,–
"CC(C)CN(C[C@@H](O)[C@H](Cc1ccccc1)NC(=O)O[C@H]1CO[C@H]2OCC[C@H]21)S(=O)(=O)c1ccc(N)cc1 [Darunavir, reference compound]",–,"fold induction at 10 µM (miR-124): 1.08; effect on the overexpression of miR-124 in PBMCs (miR-124): none of the known antiretroviral (Maraviroc, Effavirenz, Darunavir or AZT) has any significant effect"
Maraviroc [reference compound],–,"effect on the overexpression of miR-124 in PBMCs (miR-124): none of the known antiretroviral (Maraviroc, Effavirenz, Darunavir or AZT) has any significant effect; Fold-change compared to DMSO treated cells (Relative quantification) Mean (miR-124): 0.73"
"FC(F)(F)Oc1ccc(Nc2ccc3cccc(Cl)c3n2)cc1 [Compound 24, 8-chloro-N-[4-(trifluoromethoxy)phenyl]quinolin-2-amine]",32.5,"weight loss in average ([1]; after 5 days of DSS-administration, 40 mg/kg by gavage in MC, MC or untreated mice 10% to 20%): < 1%; alterations in lymphoid organs such as Peyer's Patches ([1]; after two DSS-cycles): decrease of alterations in lymphoid organs such as Peyer's Patches; average size of the lesion area ([1]; colon histology (FIG. 5), versus 8.4 in MC only treated mice): 2.1 mm^2; number of lesions ([1]; colon histology, compared between cohorts (FIG. 4)): comparable number of lesions; water consumption ([1]; drug treated mice, DSS model, 40 mg/kg by gavage): higher water consumption; average size of the lesion area ([1]; mice exposed to two DSS-cycles, vs 12.2 in MC only treated mice): 3.8 mm^2; weight loss during the second administration of DSS ([1]; second cycle of DSS, 40 mg/kg by gavage): significantly control weight loss; swelling of joints ([2]; hind paw ankle joint thickness, MC only treated about 2.2 mm (FIG. 6)): 1.9 mm; mice that displayed signs of inflammation ([2]; treated daily for two weeks, 8 out of 10 MC treated mice developed disease): one out of ten"
FC(F)(F)c1ccnc(Nc2ccc3cccc(Cl)c3n2)c1 [Compound 12],16.3,–
FC(F)(F)c1ccc(Nc2ccc3cccc(Cl)c3n2)nc1 [Compound 2],66.7,–
Cc1cc2c(N)ccc(Cl)c2nc1Nc1ccc(OC(F)(F)F)c(Cl)c1 [Compound 27],1.42,–
FC(F)(F)c1ccnc(Nc2ccc3c(OCCN4CCCCC4)ccc(Cl)c3n2)c1 [Compound 6],30.9,–
"FC(F)(F)c1ccnc(Nc2ccc3c(OCCCN4CCCCC4)ccc(Cl)c3n2)c1 [Compound 8, 8-chloro-5-(3-(piperidin-1-yl)propoxy)-N-(4-(trifluoromethyl)pyridin-2-yl)quinolin-2-amine]",7.97,–
"FC(F)(F)Oc1ccc(Oc2ccc3cccc(Cl)c3n2)cc1 [Compound 48, 8-chloro-2-(4-(trifluoromethoxy)phenoxy)quinoline]",24,–
"FC(F)(F)c1ccnc(Nc2cc(NCCCN3CCCCC3)c3cccc(Cl)c3n2)c1 [Compound 9, 8-chloro-N^4-(3-(piperidin-1-yl)propyl)-N^2-(4-(trifluoromethyl)pyridin-2-yl)quinoline-2,4-diamine]",112,–
"CN(c1ccc(OC(F)(F)F)cc1)c1ccc2cccc(Cl)c2n1 [Compound 28, 8-chloro-N-methyl-N-(4-(trifluoromethoxy)phenyl)quinolin-2-amine]",22.2,–
"FC(F)(F)c1ccnc(Oc2ccc3cccc(Cl)c3n2)c1 [Compound 46, 8-chloro-2-((4-(trifluoromethyl)pyridin-2-yl)oxy)quinoline]",6.23,–
Nc1ccc(Cl)c2nc(Nc3ccc(OC(F)(F)F)c(Cl)c3)ccc12 [Compound 26],6.13,–
Clc1cccc2ccc(Nc3cnccn3)nc12 [Compound 45],34.2,–
"FC(F)(F)c1ccnc(Nc2cc(NCCN3CCOCC3)c3cccc(Cl)c3n2)c1 [Compound 11, 8-chloro-N^4-(2-morpholinoethyl)-N^2-(4-(trifluoromethyl)pyridin-2-yl)quinoline-2,4-diamine]",17.4,–
"FC(F)(F)Oc1ccc(N(CCCN2CCCCC2)c2ccc3cccc(Cl)c3n2)cc1 [Compound 30, 8-chloro-N-(3-(piperidin-1-yl)propyl)-N-(4-(trifluoromethoxy)phenyl)quinolin-2-amine]",9.88,–
FC(F)(F)c1ccnc(Nc2ccc3c(OCCN4CCOCC4)ccc(Cl)c3n2)c1 [Compound 5],26.8,–
Fc1ccc(Nc2ccc3cccc(Cl)c3n2)nc1 [Compound 3],48.5,–
Nc1ccc(Cl)c2nc(Nc3cc(C(F)(F)F)ccn3)ccc12 [Compound 7],7.54,–
COc1ccc(Nc2ccc3cccc(Cl)c3n2)cc1 [Compound 23],45.1,–
Nc1cc(OC(F)(F)F)ccc1Nc1ccc2cccc(Cl)c2n1 [Compound 25],14.3,–
"O=C1Nc2ccc(Cl)cc2[C@@](C#CC2CC2)(C(F)(F)F)O1 [Effavirenz, Efavirenz, reference compound]",–,"fold induction at 10 µM (miR-124): 0.46; effect on the overexpression of miR-124 in PBMCs (miR-124): none of the known antiretroviral (Maraviroc, Effavirenz, Darunavir or AZT) has any significant effect"
